Results on 1 compound are retold here after US12643899B2, “Antiviral agents, uses thereof and methods for their preparation” (The University of British Columbia, priority 2020, dated 2026).

Like-named read-outs stand apart in the source and are kept apart here.

In one test the test system is DENV-4. Description: DENV-4 intracellular dsRNA (Cellomics) in A549 cells. The format is cell-based, dengue virus. The method, then:
Error bars represent SD among 3 biological replicates. Cultured A549 cells were treated with the indicated concentrations of CA (1=Mock, 2=0 M, 3=1 μM, 4=5 M, 5=10 M, 6=20 µM) or PF-429242 (7=15 M) for 1 h before being washed with PBS and infected with DENV-2, DENV-3, or DENV-4 at MOI 1.0 for 48 h. Cells were labeled for viral dsRNA with […] then imaged and quantified using the Cellomics ArrayScan™ VTI High Content Screening system.
Viruses. ZIKV: ZIKV strain PRVABC59 (Puerto Rico/2015) (ATCC #VR-1843) was used in these studies, specifically three separate stocks generated in Vero E6 cells with titres of 1.35×10^8 pfu/mL, 1.0×10^7 pfu/mL, and 2.9×10^6 pfu/mL respectively. DENV strains: DENV-2 strain NGC, DENV-3 strain H-87, and DENV-4 strain H-241 were kindly provided by National Microbiology Laboratory, Winnipeg, MB, Canada.
A549 cells were seeded onto Corning tissue culture treated 96 well plates and incubated at 37 degrees Celsius and 5% CO2 for 24 h. CA was diluted in MEM complete media to concentrations of 1 μM, 5 μM, 10 μM, 20 μM, including a 0 μM condition. Diluted CA was added to each well and cells were incubated at 37 degrees Celsius and 5% CO2 for 1 h. After 1 h, cells were washed once with PBS to remove CA and were then infected with DENV-2, -3 or -4 at an MOI of 1. […] Labeled 96 well plates were imaged and quantified using the Cellomics ArrayScan VTI. […]

The test system of test [1] is ZIKV. Description: Time-of-addition study of ZIKV infection in A549 cells (plaque assay). Format: cell-based, Zika virus. The following applies: 250 nM CA; full lifecycle, pre-replication, post-replication; A549, MOI 1.0. The method, then: Error bars represent SEM among 3 biological replicates. Significance was calculated by a 2-tailed unpaired Student's t-test. *, p<0.05.
Cultured A549 cells were inoculated with ZIKV for 1 h at MOI 1.0, and maintained for 2 d under different experimental conditions. For “Full lifecycle” 250 nM CA was added following the inoculation and maintained in the medium for 2 d; for “Pre-replication” 250 nM CA was added following the inoculation and maintained in the medium for 6 h, after which the cells were washed with PBS and the medium was changed; and for “Post-replication” 250 nM CA was added to the culture medium 12 hours post infection (hpi) and maintained until 24 hpi, after which the cells were washed with PBS and the medium was changed.

The subject of the next test is DENV-2, DENV-3, DENV-4. As to the kind of experiment: DENV-2, -3, -4 dsRNA imaging in Huh7.5.1 and U87 cells. The format is cell-based, dengue virus. Particulars: Huh 7.5.1 cells and U87 cells, FIG. 9. The procedure: Cultured Huh7.5.1 cells (left plots) or U87 cells (right plots) were treated with the indicated concentrations of CA (1=Mock, 2=0 M, 3=1 M, 4=5 M, 5=10 M, 6=20 µM) or PF-429242 (7=15 M) for 1 h before being washed with PBS and infected with DENV-2, DENV-3, or DENV-4 at MOI 1.0 for 48 h. Cells were labeled for viral dsRNA with […] then imaged and quantified using the Cellomics ArrayScan™ VTI.

The test system of another test is SARS-CoV-2. Description: SARS-CoV-2 intracellular viral RNA and nucleocapsid protein in Caco-2 cells. Format: cell-based.
For test [2], the system named is ZIKV. Description: ZIKV viral dsRNA imaging (Cellomics ArrayScan VTI) in A549 cells. The format is cell-based, Zika virus. Particulars: 15 μM, 1 h pre-treatment, MOI 1, 48 h.
The test system of test [3] is ZIKV. Description: Plaque assay (PFU) dose response, ZIKV-infected A549 cells. Format: cell-based. The following applies: Zika virus. The method, then: (§1) Error bars represent SD among 2 biological replicates.
(§2) Cultured A549 cells were treated with various concentrations of CA or PF-429242 for 24 h before being washed with PBS and inoculated with ZIKV (ZIKV strain VR 1843, Puerto Rico, 2015; ATCC) at MOI 1.0 for 1 h. Following the removal of the inoculum, cells were incubated in fresh media for 2 d before the supernatant was collected, clarified, and secreted NS1 protein abundance was measured by an ELISA kit (BioFront Technologies) according to the manufacturer's instructions. Curve fitting was performed in Igor Pro (WaveMetrics) using a hyperbolic fit algorithm (FIG. 4; upper and middle plots) and IC50 and TI values obtained. IC50 and TI values were also obtained for CA via plaque assay (PFU; FIG. 4, lower plot). FIG. 4 (upper plot) is an ED50 curve for the PF inhibitor based on the detection of secreted Non-Structural protein 1 (sNS1), secreted viral biomarker. sNS1 was detected using an Elisa test (commercially available). FIG. 4 (middle plot) is an ED50 curve for CA based on the detection of secreted Non-Structural protein 1 (sNS1), secreted viral biomarker. sNS1 was detected using an Elisa test (commercially available).
Bottom: ED50 curve for CA based on the detection of secreted infectious virus particles, as viral biomarker. Titer of the infectious virus particles (Plaque forming units) determined using plaque assays.

Test [4] has as its system human coronavirus 229E (HCoV-229E). Description: HCoV-229E intracellular viral dsRNA assay in Huh-7 cells. Particulars: Huh-7, 48 h. The format is cell-based. The procedure: An IF-based assay was used to monitor viral dsRNA in infected cells.
CA pre-treatment: Cladoniamide A was added to non-infected Huh-7 cells (3 h). Cells were washed with PBS and inoculated with human coronavirus 229E (HCoV-229E) for 3 hours, then HCoV-229E was removed and the cells were washed with PBS once more. 48 hours post-infection, the cells were fixed and the intra-cellular viral dsRNA was quantified (HCS CX5 system). CA added post-infection: Huh-7 cells were inoculated with HCoV-229E for 3 hours. Then HCoV-229E was removed and cells were washed with PBS. Cladoniamide A was added to these infected cells. 48 hours post-infection, the cells were fixed and the intra-cellular viral dsRNA was quantified (HCS CX5 system).

Test [5] concerns ZIKV. Description: Secreted NS1 (sNS1) ELISA, ZIKV-infected A549 cells. The format is cell-based, Zika virus. Particulars: Zika virus, 24 h pre-treatment, MOI 1.0, 2 d. The procedure: as §1, §2
On the technique in general: An ELISA detects its analyte on a solid surface through an enzyme-linked reagent.

In general, IC50 refers to the concentration that inhibits the measured activity by half. Consider `COc1c2n(c3ccccc13)[C@]1(O)C(=O)N(C)C(=O)[C@]1(O)c1c-2[nH]c2ccc(Cl)cc12` [CA, (11S,15R)-7-chloro-11,15-dihydroxy-23-methoxy-13-methyl-3,13,16-triazahexacyclo[14.7.0.0^2,10.0^4,9.0^11,15.0^17,22]tricosa-1(23),2(10),4(9),5,7,17,19,21-octaene-12,14-dione], for which the “activity against Dengue virus 4 in vitro” value in the test with DENV-4 (1-20 μM, FIG. 8 lower plots) is “good activity”. Besides, the IC50 in the test with DENV-4 (Dengue virus, DENV4, DENV-4, intracellular dsRNA (Cellomics)) turned out to be 3200 nM; in the test with ZIKV [3], 110 nM; in the test on ZIKV [5] it was 80 nM. In addition, in the test on ZIKV [1], the “step of ZIKV infection inhibited” value was “dual inhibitor of ZIKV infection targeting the entry and maturation steps”. Also, the “activity against Dengue virus 2, 3 and 4” value in the test with DENV-2, DENV-3, DENV-4 was “broad-spectrum anti-flaviviral activity”. In addition, the EC50 in the test on SARS-CoV-2 (Severe acute respiratory syndrome coronavirus 2, Caco-2, read-out: ED50, intracellular SARS-CoV-2 nucleocapsid protein, Caco-2 cells, 3 hours pre-treatment) stood at 5 nM; with SARS-CoV-2 (Severe acute respiratory syndrome coronavirus 2, Caco-2, read-out: ED50, intracellular viral RNA, Caco-2 cells, 3 hours pre-treatment) it was 2 nM; in test [4] it was 15 nM. In the test on ZIKV [2], the “activity against ZIKV (viral dsRNA)” value is reported as “good activity”.
